The target in the test is T1, Or35a (Drosophila melanogaster, UniProt Q9V3Q2).
T1 construct: his-tag; made in house; host or cells: baculovirus-infected Sf9 cells
T1 sequence (Q9V3Q2 1-409): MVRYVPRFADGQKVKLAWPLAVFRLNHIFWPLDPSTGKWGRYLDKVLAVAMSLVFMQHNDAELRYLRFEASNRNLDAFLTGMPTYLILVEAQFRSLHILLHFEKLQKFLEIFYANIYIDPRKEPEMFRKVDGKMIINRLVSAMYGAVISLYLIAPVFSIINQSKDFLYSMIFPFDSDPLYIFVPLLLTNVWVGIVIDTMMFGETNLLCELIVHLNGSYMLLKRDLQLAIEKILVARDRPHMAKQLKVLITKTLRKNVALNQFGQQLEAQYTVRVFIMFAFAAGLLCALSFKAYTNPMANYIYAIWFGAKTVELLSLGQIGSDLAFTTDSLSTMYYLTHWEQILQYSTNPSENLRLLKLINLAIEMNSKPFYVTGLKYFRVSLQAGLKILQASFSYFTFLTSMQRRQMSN
Nature of the test: EIS sensor, Or35a liposomes on gold electrode. The class given is biochemical. The settings on record: EIS dose response. The procedure:
PBS (pH=7.4) was used as an electrolyte to conduct electrochemical measurements. PBS buffer was degassed for about 30 minutes prior to electrochemical measurements. Odorant solutions of concentration ranging from 1 aM to 1 μM were prepared by sequential dilution in PBS solution containing 1% DMSO. OR immobilized electrodes were incubated in relevant odorant solution for ˜30 minutes each and washed gently with PBS before EIS measurements.
EIS measurements were done in a 3 electrode cell containing Ag/AgCl (3 M NaCl, 0.209 V vs. SHE) reference electrode, coiled platinum wire as a counter electrode and the gold disk as a working electrode at a fixed voltage of −0.7 using PalmSens potentiostat. Degassed PBS was used as an electrolyte.
EIS measurements were performed on gold electrodes functionalised with OrX liposomes (either Or10a or Or22a), OrX/Orco liposomes, or empty liposomes prior to and after target ligand or control ligand incubation with increasing concentrations (1 aM to 100 μM). Dose response curves were obtained by defining sensor response as −(ΔRp/R^op) versus log[C(Ligand)]. FIG. 4a presents the EIS response in terms of Nyquist plot for the Or10a liposome functionalized sensors when exposed to a solution containing one of the known target ligands of Or10a, methyl salicylate, at various concentrations. […] The dose response curve (FIG. 4b) was obtained by plotting the change in polarization resistance −(ΔRp/R^op) versus log[conc(Ligand)], as the sensor response. Here, Rp is the polarization resistance after Or10a liposome-target interaction and R^op is the polarization resistance before Or10a liposome-target interaction.
Prior to use, 1 mg liposomes (500 μl at 2 mg/ml) were defrosted on ice and then destabilized by incubating with 0.2% CHAPS for 15 min at room temperature. […] All Or35a/Orco integrated liposomes samples were analysed by Western blot before being aliquoted and stored at −80° C. Integration of Or35a/Orco into liposomes was assessed by density gradient ultracentrifugation (DGU) using Accudenz (Accurate Chemical & Scientific Corporation, USA). […]

Regarding `COC(=O)c1ccccc1O` [methyl salicylate], the “sensor response to control ligand” value is “negligible response”.
